According to publication PMC6934184, “Selective DNA-PKcs inhibition extends the therapeutic index of localized radiotherapy and chemotherapy” (The Journal of Clinical Investigation, 2019):

Target: T1, TBK1 (Homo sapiens, UniProt Q9UHD2)
T1 construct: purchased Thermo Fisher Scientific (Life Technologies) SelectScreen
Test: SelectScreen Z'LYTE
Format: biochemical
How it was run: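 NU5455 was profiled across the SelectScreen Broad panel of kinase activity and binding assays. Z'LYTE reactions such as CSF1R ran at apparent Km ATP, while the Adapta CAMK1 assay used ATP listed as 10. Values are given as percent.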

T1 sequence (Q9UHD2 whole entry): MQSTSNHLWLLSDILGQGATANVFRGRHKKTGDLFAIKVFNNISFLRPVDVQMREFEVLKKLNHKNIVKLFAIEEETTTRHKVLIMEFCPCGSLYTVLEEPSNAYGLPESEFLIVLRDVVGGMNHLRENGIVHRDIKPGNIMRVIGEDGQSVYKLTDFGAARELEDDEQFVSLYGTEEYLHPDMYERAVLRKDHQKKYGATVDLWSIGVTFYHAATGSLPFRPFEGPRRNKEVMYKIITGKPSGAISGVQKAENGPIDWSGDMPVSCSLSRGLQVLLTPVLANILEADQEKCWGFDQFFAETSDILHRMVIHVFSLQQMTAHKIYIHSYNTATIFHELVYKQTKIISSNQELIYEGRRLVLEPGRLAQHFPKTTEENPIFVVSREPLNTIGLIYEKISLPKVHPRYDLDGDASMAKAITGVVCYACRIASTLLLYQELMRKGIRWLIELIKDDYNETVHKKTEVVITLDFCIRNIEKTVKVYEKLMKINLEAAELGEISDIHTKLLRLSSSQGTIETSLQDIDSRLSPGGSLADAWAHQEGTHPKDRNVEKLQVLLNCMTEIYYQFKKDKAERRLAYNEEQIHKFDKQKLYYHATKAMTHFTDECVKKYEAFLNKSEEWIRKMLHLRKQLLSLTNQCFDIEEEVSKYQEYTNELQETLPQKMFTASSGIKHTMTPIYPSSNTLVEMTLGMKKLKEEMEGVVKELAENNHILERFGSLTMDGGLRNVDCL

In the case of `CN(C(=O)CN1CCOCC1)c1ccc2sc3c(-c4cccc5c(=O)cc(N6CC7CCC(C6)O7)oc45)cccc3c2c1` [NU5455], the inhibition at 1 µM is reported as 2%.
